Test results: ChEMBL document CHEMBL5465560, “Selectivity Literature for EUbOPEN Chemogenomic Library” (2024)

How the values were obtained:
[1] = molecular target: MAP/microtubule affinity-regulating kinase 3 (Homo sapiens) (UniProt P27448); details: at 10 µM
[2] = molecular target: Serine/threonine-protein kinase PLK2 (Homo sapiens, UniProt Q9NYY3); assay: Selectivity interaction (KinomeScan (DiscoverX)) EUB0000655a PLK2; details: at 10 µM
[3] = molecular target: T1, Tyrosine-protein kinase JAK3 (Homo sapiens, UniProt P52333)
T1 sequence (P52333 whole entry): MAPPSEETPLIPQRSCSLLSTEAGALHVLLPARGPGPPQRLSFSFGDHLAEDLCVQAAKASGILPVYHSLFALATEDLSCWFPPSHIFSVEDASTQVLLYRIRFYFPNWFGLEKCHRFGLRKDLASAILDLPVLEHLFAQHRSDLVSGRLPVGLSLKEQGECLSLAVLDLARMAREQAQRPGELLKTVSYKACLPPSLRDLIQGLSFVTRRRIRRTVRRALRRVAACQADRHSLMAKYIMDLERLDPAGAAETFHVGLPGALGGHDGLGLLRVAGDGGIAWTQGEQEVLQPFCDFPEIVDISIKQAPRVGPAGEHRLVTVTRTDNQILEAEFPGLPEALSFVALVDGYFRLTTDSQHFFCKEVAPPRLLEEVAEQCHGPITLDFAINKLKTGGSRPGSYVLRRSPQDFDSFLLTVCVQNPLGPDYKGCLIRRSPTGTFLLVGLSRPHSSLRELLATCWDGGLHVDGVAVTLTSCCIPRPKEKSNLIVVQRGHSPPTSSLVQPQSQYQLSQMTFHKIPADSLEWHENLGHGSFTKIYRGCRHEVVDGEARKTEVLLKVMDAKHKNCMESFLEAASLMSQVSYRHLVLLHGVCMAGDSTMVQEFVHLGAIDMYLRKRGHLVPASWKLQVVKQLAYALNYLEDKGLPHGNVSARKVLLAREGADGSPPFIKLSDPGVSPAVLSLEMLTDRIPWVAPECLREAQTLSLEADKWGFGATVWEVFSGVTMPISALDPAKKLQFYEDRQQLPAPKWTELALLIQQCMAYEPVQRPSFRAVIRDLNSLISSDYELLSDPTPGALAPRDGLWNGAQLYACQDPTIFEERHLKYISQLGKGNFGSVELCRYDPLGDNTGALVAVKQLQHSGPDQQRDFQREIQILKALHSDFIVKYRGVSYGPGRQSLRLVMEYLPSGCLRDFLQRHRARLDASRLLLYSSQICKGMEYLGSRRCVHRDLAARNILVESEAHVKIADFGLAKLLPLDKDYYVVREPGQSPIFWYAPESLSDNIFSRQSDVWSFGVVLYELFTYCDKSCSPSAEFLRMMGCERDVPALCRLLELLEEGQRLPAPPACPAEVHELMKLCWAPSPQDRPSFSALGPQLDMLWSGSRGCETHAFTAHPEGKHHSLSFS

[4] = molecular target: 5'-AMP-activated protein kinase catalytic subunit alpha-2 (Homo sapiens) (UniProt P54646); assay: Selectivity interaction (ActivX KiNativ screen (kinase selectivity in THP-1 cell lysates)) EUB0000639a PRKAA2; assay type: subcellular; details: lysate, at 0.04 µM
Sequence of 5'-AMP-activated protein kinase catalytic subunit alpha-2 (Homo sapiens) (P54646 whole entry, looked up): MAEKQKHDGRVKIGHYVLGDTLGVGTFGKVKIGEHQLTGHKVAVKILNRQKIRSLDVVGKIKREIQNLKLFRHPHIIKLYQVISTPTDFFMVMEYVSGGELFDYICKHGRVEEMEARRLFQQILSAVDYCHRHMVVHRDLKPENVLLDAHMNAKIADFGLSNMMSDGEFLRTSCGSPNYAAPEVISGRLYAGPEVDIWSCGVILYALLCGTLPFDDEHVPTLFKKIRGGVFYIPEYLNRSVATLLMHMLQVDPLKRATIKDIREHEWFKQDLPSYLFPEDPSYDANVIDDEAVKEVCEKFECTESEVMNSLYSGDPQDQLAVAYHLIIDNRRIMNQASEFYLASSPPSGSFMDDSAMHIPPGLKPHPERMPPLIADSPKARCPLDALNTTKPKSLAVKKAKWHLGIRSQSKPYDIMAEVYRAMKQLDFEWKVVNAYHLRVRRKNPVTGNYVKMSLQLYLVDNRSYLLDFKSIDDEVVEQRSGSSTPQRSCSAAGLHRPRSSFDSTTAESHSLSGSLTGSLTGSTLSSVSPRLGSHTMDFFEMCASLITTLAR

[5] = molecular target: Calcium/calmodulin-dependent protein kinase type II subunit beta (Homo sapiens) (UniProt Q13554); assay: Selectivity interaction (Kinase panel (Invitrogen)) EUB0000639a CAMK2B; details: at 200 nM
Sequence of Calcium/calmodulin-dependent protein kinase type II subunit beta (Homo sapiens) (Q13554 whole entry): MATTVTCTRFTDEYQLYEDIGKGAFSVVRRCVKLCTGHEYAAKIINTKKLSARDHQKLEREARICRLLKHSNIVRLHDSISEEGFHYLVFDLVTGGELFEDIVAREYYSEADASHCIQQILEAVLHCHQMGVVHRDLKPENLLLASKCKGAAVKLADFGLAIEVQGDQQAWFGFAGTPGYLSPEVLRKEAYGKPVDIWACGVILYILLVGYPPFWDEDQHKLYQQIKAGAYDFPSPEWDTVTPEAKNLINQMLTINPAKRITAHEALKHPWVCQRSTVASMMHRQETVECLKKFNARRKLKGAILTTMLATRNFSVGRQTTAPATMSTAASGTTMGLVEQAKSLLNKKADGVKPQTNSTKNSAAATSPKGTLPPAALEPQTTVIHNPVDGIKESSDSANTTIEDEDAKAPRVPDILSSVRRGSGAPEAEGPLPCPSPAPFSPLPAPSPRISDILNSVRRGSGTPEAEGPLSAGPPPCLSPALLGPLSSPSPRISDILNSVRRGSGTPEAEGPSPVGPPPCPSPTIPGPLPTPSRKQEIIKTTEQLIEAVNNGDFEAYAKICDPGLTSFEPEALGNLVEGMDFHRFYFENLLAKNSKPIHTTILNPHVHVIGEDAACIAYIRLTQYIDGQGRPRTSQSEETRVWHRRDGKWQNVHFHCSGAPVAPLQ

[6] = molecular target: T2, Inhibitor of nuclear factor kappa-B kinase subunit epsilon (Homo sapiens) (UniProt Q14164); assay: Selectivity interaction (ActivX KiNativ screen (kinase selectivity in THP-1 cell lysates)) EUB0000639a IKBKE; assay type: subcellular; details: lysate, at 0.2 µM
T2 sequence (whole entry): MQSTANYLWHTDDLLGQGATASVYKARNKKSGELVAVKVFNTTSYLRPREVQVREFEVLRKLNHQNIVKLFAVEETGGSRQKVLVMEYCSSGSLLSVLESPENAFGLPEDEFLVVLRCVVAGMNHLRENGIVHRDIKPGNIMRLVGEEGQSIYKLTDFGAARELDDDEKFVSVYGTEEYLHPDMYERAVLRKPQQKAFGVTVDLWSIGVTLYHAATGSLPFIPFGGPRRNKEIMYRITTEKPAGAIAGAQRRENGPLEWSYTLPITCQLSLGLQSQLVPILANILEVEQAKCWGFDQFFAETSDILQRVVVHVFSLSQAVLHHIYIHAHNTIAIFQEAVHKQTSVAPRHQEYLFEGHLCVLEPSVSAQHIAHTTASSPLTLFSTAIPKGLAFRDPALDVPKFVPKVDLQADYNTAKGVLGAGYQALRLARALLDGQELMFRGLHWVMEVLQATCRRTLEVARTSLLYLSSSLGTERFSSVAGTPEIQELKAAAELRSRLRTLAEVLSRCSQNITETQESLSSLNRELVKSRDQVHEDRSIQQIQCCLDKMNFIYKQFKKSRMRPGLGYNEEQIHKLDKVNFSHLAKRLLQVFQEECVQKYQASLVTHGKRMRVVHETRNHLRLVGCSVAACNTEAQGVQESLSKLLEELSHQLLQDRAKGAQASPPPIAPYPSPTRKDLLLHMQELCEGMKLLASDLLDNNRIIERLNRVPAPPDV

[7] = molecular target: T3, Aurora kinase A (Homo sapiens) (UniProt O14965); assay: Selectivity interaction (KinomeScan (DiscoverX)) EUB0001049a STK6; details: at 1 µM
T3 sequence (whole entry): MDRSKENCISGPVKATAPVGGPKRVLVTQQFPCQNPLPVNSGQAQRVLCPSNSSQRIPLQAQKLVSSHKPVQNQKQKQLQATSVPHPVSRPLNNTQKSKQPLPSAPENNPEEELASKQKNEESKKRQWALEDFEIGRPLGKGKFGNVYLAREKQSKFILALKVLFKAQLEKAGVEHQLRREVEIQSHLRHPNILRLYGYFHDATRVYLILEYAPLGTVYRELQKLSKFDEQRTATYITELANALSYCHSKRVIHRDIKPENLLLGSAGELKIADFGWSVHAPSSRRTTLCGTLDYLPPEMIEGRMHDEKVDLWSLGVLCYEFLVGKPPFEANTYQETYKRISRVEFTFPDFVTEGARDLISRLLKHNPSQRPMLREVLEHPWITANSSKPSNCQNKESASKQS

[8] = molecular target: T4, Dual specificity mitogen-activated protein kinase kinase 6 (Homo sapiens) (UniProt P52564); assay: Selectivity interaction (Kinase screening (Upstate/Millipore)) EUB0000604a MAP2K6
T4 sequence (whole entry): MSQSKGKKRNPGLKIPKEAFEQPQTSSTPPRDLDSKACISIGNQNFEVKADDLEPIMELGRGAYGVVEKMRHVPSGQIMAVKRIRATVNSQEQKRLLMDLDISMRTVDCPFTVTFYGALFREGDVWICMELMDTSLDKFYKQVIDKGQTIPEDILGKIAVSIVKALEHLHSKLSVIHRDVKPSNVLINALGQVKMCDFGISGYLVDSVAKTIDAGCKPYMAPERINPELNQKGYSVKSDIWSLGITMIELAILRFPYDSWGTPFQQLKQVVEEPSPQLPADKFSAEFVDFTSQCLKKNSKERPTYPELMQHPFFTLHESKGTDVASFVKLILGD

Sequence of MAP/microtubule affinity-regulating kinase 3 (Homo sapiens) (P27448 whole entry, looked up): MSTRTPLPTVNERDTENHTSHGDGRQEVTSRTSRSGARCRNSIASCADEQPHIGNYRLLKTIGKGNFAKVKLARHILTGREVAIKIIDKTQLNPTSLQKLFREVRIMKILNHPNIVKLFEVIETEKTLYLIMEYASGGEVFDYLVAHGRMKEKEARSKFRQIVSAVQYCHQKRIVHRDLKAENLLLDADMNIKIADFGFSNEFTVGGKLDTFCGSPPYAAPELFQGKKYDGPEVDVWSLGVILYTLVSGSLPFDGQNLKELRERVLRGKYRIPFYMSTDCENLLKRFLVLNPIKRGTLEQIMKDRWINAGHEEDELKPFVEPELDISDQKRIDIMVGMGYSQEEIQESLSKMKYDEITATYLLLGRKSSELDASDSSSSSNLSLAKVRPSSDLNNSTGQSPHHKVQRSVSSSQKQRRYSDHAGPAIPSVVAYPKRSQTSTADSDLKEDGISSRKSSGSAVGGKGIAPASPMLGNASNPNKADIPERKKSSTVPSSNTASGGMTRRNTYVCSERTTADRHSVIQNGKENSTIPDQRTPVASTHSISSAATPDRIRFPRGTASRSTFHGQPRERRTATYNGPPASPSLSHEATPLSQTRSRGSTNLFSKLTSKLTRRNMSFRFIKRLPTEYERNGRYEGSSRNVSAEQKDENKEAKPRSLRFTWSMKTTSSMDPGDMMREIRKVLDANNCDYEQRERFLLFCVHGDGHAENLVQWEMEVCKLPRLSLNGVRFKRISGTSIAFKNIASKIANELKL
Sequence of Serine/threonine-protein kinase PLK2 (Q9NYY3 whole entry, looked up): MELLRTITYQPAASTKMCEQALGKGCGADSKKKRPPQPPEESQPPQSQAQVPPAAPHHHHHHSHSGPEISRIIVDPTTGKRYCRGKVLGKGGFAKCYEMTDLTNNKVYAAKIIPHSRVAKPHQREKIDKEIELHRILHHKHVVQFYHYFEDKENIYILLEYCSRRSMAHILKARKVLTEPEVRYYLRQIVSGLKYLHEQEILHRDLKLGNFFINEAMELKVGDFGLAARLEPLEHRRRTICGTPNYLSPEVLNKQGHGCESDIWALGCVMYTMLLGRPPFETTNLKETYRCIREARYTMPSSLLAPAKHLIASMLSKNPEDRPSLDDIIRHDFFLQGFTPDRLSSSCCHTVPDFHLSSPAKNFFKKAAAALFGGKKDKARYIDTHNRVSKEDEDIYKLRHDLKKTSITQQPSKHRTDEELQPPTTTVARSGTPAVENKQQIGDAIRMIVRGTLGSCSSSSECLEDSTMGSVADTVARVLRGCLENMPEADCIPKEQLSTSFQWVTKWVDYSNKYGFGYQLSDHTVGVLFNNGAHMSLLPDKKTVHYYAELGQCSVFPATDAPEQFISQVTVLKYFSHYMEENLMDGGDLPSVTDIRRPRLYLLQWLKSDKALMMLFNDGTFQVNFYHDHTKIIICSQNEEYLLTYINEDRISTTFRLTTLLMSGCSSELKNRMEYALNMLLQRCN

Compound `CCN(CC)CCCCNc1ncc2cc(-c3cc(OC)cc(OC)c3)c(NC(=O)NC(C)(C)C)nc2n1` has a % of control [1] of 100%.
`CN(C)CCOc1ccc(-c2nc(-c3ccncc3)c(-c3ccc4c(c3)CC/C4=N\O)[nH]2)cc1` gave a % of control [2] of 92%.
`CCc1cccc(CC)c1NC(=O)c1nn(C)c2c1CCc1cnc(Nc3ccc(C(=O)NC4CCN(C)CC4)cc3OC(F)(F)F)nc1-2` was tested, and the IC50 [3] was greater than 10 µM.
`CC[C@@H]1[C@H](F)C(=O)N[C@@H]1COc1nccc2cc(C(N)=O)c(OC)cc12` [ZIMLOVISERTIB] was tested, and the % of inhibition [4] was -11.5%, the % of inhibition [5] was 10.8% and the % of inhibition [6] was -29.9%.
`COc1cc(Nc2nc(C)cc(-c3cnn4nc(OC)ccc34)n2)cc(C(F)(F)F)c1` showed a % of control [7] of 93%.
`Cc1cnc(Nc2ccc(F)cc2Cl)nc1-c1c[nH]c(C(=O)N[C@H](CO)c2cccc(Cl)c2)c1` gave a % of inhibition [8] of 9%.
